Results published in patent US10857105B2, “Compounds and compositions for intracellular delivery of therapeutic agents” (ModernaTX, Inc., priority 2017, dated 2020).

Assays:
[1] = Particle size and polydispersity index of nanoparticle compositions (Zetasizer Nano ZS); type: physicochemical; settings: Table 1A; lipid:DSPC:cholesterol:PEG-DMG 50:10:38.5:1.5 mol %
Description: A Zetasizer Nano ZS (Malvern Instruments Ltd, Malvern, Worcestershire, UK) can be used to determine the particle size, the polydispersity index (PDI) and the zeta potential of the nanoparticle compositions in 1×PBS in determining particle size and 15 mM PBS in determining zeta potential.
(§1) Initial studies were performed to compare the delivery efficiency of nanoparticle compositions including various compounds according to Formula (I), (IA), (IB), (II), (IIa), (IIb), (IIc), (IId), (IIe), (IIf), (IIg), or (III). The cationic lipid MC3 is a current standard in the art. Accordingly, the standard MC3 formulation including about 50 mol % MC3, about 10 mol % DSPC, about 38.5 mol % cholesterol, and about 1.5 mol % PEG-DMG was used as a basis for this study. Nanoparticle compositions including DSPC as a phospholipid, cholesterol as a structural lipid, PEG-DMG as a PEG lipid, an RNA, and a compound according to Formula (I), (IA), (IB), (II), (IIa), (IIb), (IIc), (IId), (IIe), (IIf), (IIg), or (III) selected from Compounds 1-159, 168-170, and 173-175 were prepared according to or via methods similar to those described in Examples 1 and 2. The ratios of the lipids were 50:10:38.5:1.5 mol % for the lipid according to Formula (I), (IA), (IB), (II), (IIa), (IIb), (IIc), (IId), (IIe), (IIf), (IIg), or (III):DSPC:cholesterol:PEG-DMG. The RNA used was an mRNA encoding luciferase (Luc) or hEPO, wherein each uridine was replaced N1-methyl pseudouridine. Tables 1A-1E summarize the content and characteristics of the formulations.

[2] = Encapsulation efficiency of RNA in nanoparticle compositions (RIBOGREEN assay); type: physicochemical; settings: Table 1A; lipid:DSPC:cholesterol:PEG-DMG 50:10:38.5:1.5 mol %
Description: For nanoparticle compositions including an RNA, a QUANT-IT™ RIBOGREEN® RNA assay (Invitrogen Corporation Carlsbad, Calif.) can be used to evaluate the encapsulation of an RNA by the nanoparticle composition. The samples are diluted to a concentration of approximately 5 μg/mL, in a TE buffer solution (10 mM Tris-HCl, 1 mM EDTA, pH 7.5). 50 μL of the diluted samples are transferred to a polystyrene 96 well plate and either 50 μL of TE buffer or 50 μL of a 2% Triton X-100 solution is added to the wells. The plate is incubated at a temperature of 37° C. for 15 minutes. The RIBOGREEN® reagent is diluted 1:100 in TE buffer, and 100 μL of this solution is added to each well. The fluorescence intensity can be measured using a fluorescence plate reader (Wallac Victor 1420 Multilabel Counter; Perkin Elmer, Waltham, Mass.) at an excitation wavelength of, for example, about 480 nm and an emission wavelength of, for example, about 520 nm. The fluorescence values of the reagent blank are subtracted from that of each of the samples and the percentage of free RNA is determined by dividing the fluorescence intensity of the intact sample (without addition of Triton X-100) by the fluorescence value of the disrupted sample (caused by the addition of Triton X-100).
as §1

modified luciferase = assay: Luciferase expression in liver, lung, spleen and femur 6 hours after intravenous administration to mice; type: in vivo; settings: 6 hours after intravenous 0.5 mpk, mice
Description: The efficacy of the nanoparticle compositions presented in Table 1A was further evaluated by measuring the expression of modified luciferase in the liver, lung, spleen, and femur upon administration of a given composition. Formulations were administered intravenously to mice (n=3) at a dosage of 0.5 mpk and bioluminescence measured after 6 hours. The standard MC3 formulation and a PBS control were also tested. […] Flux in the liver was lowest for compositions including Compounds 58, 59, 137, and 141. Flux in the spleen was highest for compositions including Compounds 4, 7, 33, 34, 48, 53, 108, 129, 130, and 148, and lowest for compositions including Compounds 9, 59, 124, and 141.

luciferase (Luc) mRNA = assay: Luciferase expression (whole body bioluminescence) after intravenous administration to mice; type: in vivo; settings: i.v. administration (Table 3C)
Description: In order to monitor how effectively various nanoparticle compositions deliver therapeutic and/or prophylactics to targeted cells, different nanparticle compositions including a particular therapeutic and/or prophylactic (for example, a modified or naturally occurring RNA such as an mRNA) are prepared and administered to rodent populations. Mice are intravenously, intramuscularly, intraarterially, or intratumorally administered a single dose including a nanoparticle composition with a formulation such as those provided in Example 3. In some instances, mice may be made to inhale doses. Dose sizes may range from 0.001 mg/kg to 10 mg/kg, where 10 mg/kg describes a dose including 10 mg of a therapeutic and/or, prophylactic in a nanoparticle composition for each 1 kg of body mass of the mouse. A control composition including PBS may also be employed.
Upon administration of nanoparticle compositions to mice, dose delivery profiles, dose responses, and toxicity of particular formulations and doses thereof can be measured by enzyme-linked immunosorbent assays (ELISA), bioluminescent imaging, or other methods. For nanoparticle compositions including mRNA, time courses of protein expression can also be evaluated. Samples collected from the rodents for evaluation may include blood, sera, and tissue (for example, muscle tissue from the site of an intramuscular injection and internal tissue); sample collection may involve sacrifice of the animals.
The efficacy of the nanoparticle compositions presented in Table 1A was evaluated with a bioluminescence study. Formulations were administered intravenously to mice (n=6) at a dosage of 0.5 mg/kg (mpk) and bioluminescence measured at 3, 6, and 24 hour time points. The standard MC3 formulation and, in some instances, a control (e.g., a PBS control) were evaluated for comparison. […] In general, flux decreased as time progressed to less than 10% of the initial flux.
The total flux (measured by area under the curve, AUC) induced by administration of a formulation including a given lipid relative to that induced by administration of a formulation including MC3 was also measured for several lipids.

CCCCCCCCC(CCCCCCCC)OC(=O)CCCCCCCN(CCO)CCCC(=O)OCCCCCCC [Compound 54, heptadecan-9-yl 8-((4-(heptyloxy)-4-oxobutyl)(2-hydroxyethyl)amino) octanoate]
Size [1]: 112.9 nm
EE [2]: 96.71%
Total Flux, Liver (modified luciferase): 5.57E+09
Total Flux, Lung (modified luciferase): 1.12E+07
Total Flux, Spleen (modified luciferase): 1.64E+08

CCCCCCCCCOC(=O)CCCCCCCN(CCO)CCCCCCCC(=O)OC(CCCCCC)CCCCCC [Compound 56, nonyl 8-((2-hydroxyethyl)(8-oxo-8-(tridecan-7-yloxy)octyl)amino) octanoate]
Size [1]: 112.1 nm
EE [2]: 95.18%
Total Flux, Liver (modified luciferase): 1.04E+09
Total Flux, Lung (modified luciferase): 4.62E+06
Total Flux, Spleen (modified luciferase): 1.98E+08

CCCCCCCCCOC(=O)CCCCCCCN(CCO)CCCCCCCC(=O)OC(CCCC)CCCC [Compound 57, nonan-5-yl 8-((2-hydroxyethyl)(8-(nonyloxy)-8-oxooctyl)amino) octanoate]
Size [1]: 128.4 nm
EE [2]: 94.33%
Total Flux, Liver (modified luciferase): 9.36E+05
Total Flux, Lung (modified luciferase): 3.18E+04
Total Flux, Spleen (modified luciferase): 2.47E+06

CCCCCCCCCOC(=O)CCCCCCCN(CCO)CCCCCCCC(=O)OC(CCC)CCC [Compound 58, heptan-4-yl 8-((2-hydroxyethyl)(8-(nonyloxy)-8-oxooctyl)amino) octanoate]
Size [1]: 130.8 nm
EE [2]: 92.54%
Total Flux, Liver (modified luciferase): 8.71E+04
Total Flux, Lung (modified luciferase): 1.21E+04
Total Flux, Spleen (modified luciferase): 2.38E+05

CCCCCCCCC(CCCCCCCC)OC(=O)CCCCCCCN(CCO)CCCCCCCC(=O)OC1CCC(CCCCC)CC1 (stereo not drawn) [Compound 66, Heptadecan-9-yl 8-((2-hydroxyethyl)(8-oxo-8-((4-pentylcyclohexyl)oxy)octyl)amino)octanoate]
Size [1]: 76.7 nm
AUC (luciferase (Luc) mRNA): 6.76E+11 h*p/s
Total Flux, Liver (modified luciferase): 5.01E+09
Total Flux, Lung (modified luciferase): 4.20E+06
Total Flux, Spleen (modified luciferase): 2.00E+07

CCCCCCCCC(CCCCCCCC)OC(=O)CCCCCCCN(CCO)CCCC(=O)OC(CCCCCC)CCCCCCCC (stereo not drawn) [Compound 73, Heptadecan-9-yl 8-((2-hydroxyethyl)(4-oxo-4-(pentadecan-7-yloxy)butyl)amino)octanoate]
Size [1]: 59.2 nm
EE [2]: 95.7%
Total Flux, Liver (modified luciferase): 7.93E+08
Total Flux, Lung (modified luciferase): 6.17E+06
Total Flux, Spleen (modified luciferase): 9.45E+06

CCCCCCCCCOC(=O)CCCCCCCN(CCO)CCCCCCCC(=O)OC1CCC(CCCCC)CC1 (stereo not drawn) [Compound 79, Nonyl 8-((2-hydroxyethyl)(8-oxo-8-((4-pentylcyclohexyl)oxy)octyl)amino)octanoate]
Size [1]: 93.7 nm
EE [2]: 89.1%
Total Flux, Liver (modified luciferase): 3.15E+06
Total Flux, Lung (modified luciferase): 6.13E+04
Total Flux, Spleen (modified luciferase): 6.45E+05

CCCCCCCCCOC(=O)CCCCCCCN(CCO)CCCCCCCC(=O)OC1CCC(C2CCCCC2)CC1 (stereo not drawn) [Compound 80, [1,1′-Bi(cyclohexan)]-4-yl 8-((2-hydroxyethyl)(8-(nonyloxy)-8-oxooctyl)amino)octanoate]
Size [1]: 118 nm
EE [2]: 90.7%
Total Flux, Liver (modified luciferase): 1.09E+07
Total Flux, Lung (modified luciferase): 8.97E+04
Total Flux, Spleen (modified luciferase): 4.71E+06

CCCCCCCCCOC(=O)CCCCCCCN(CCO)CCCCCCCC(=O)OC1CCCCCCCCCCCCCC1 [Compound 81, Cyclopentadecyl 8-((2-hydroxyethyl)(8-(nonyloxy)-8-oxooctyl)amino)octanoate]
Size [1]: 99.2 nm
EE [2]: 95.4%
Total Flux, Liver (modified luciferase): 2.74E+08
Total Flux, Lung (modified luciferase): 6.23E+06
Total Flux, Spleen (modified luciferase): 4.49E+07

CCCCCCCCCOC(=O)CCCCCCCN(CCCCCCCC(=O)OC(CCCCCCCC)CCCCCCCC)CCN1CCN(C)CC1 [Compound 101, Heptadecan-9-yl 8-((2-(4-methylpiperazin-1-yl)ethyl)(8-(nonyloxy)-8-oxooctyl)amino)octanoate]
Size [1]: 91.7 nm
AUC (luciferase (Luc) mRNA): 1.8E+09 h*p/s
Total Flux, Liver (modified luciferase): 1.27E+07
Total Flux, Lung (modified luciferase): 1.77E+05
Total Flux, Spleen (modified luciferase): 5.60E+06

CCCCCCCCCOC(=O)CCCCCCCN(CCO)CCCCCCCCCOP(=O)(OCCCCCCCCC)OCCCCCCCCC [Compound 127, Nonyl 8-((9-((bis(nonyloxy)phosphoryl)oxy)nonyl)(2-hydroxyethyl)amino)octanoate]
Size [1]: 110.4 nm
EE [2]: 89.5%
Total Flux, Liver (modified luciferase): 1.94E+08
Total Flux, Lung (modified luciferase): 5.26E+06
Total Flux, Spleen (modified luciferase): 3.21E+08

CCCCCCCCCCCOC(=O)CCCCCN(CCO)CCCCCCCC(=O)N(CCCCCCCC)CCCCCCCC [Compound 129, Undecyl 6-((8-(dioctylamino)-8-oxooctyl)(2-hydroxyethyl)amino)hexanoate]
Size [1]: 86.3 nm
EE [2]: 77.2%
Total Flux, Liver (modified luciferase): 6.65E+08
Total Flux, Lung (modified luciferase): 9.89E+06
Total Flux, Spleen (modified luciferase): 5.09E+08
